Test results reported in US20230183243A1, “HETEROARYL DERIVATIVES AND PHARMACEUTICAL COMPOSITION COMPRISING SAME AS ACTIVE INGREDIENT” (VORONOI INC., priority 2019, published 2023).

Columns and labels:
SHP-77 = assay: Inhibition of proliferation of small cell lung cancer cells, CellTiter-Glo; type: cell-based; conditions: Homo sapiens, SHP77, 120 h; SHP-77, cultured for 5 days
Outline: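 SHP-77 cells at 2,000–3,000 cells/well, cultured 24 h at 37° C, 5% CO2, then given 12 threefold compound dilutions, final 10 μM to 0.05 nM, for 5 days. Viability by CellTiter-Glo luminescence relative to solvent control. GI50 from concentration–response.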

TTK = biological target: T1, TTK (Homo sapiens, UniProt P33981); assay: TTK enzyme activity, ADP-Glo kinase assay; type: biochemical; parameters: purchased SignalChem T20-10G; conditions: purified human TTK, ATP 10 μM, 25° C., 2 hours
T1 sequence (P33981 1-857): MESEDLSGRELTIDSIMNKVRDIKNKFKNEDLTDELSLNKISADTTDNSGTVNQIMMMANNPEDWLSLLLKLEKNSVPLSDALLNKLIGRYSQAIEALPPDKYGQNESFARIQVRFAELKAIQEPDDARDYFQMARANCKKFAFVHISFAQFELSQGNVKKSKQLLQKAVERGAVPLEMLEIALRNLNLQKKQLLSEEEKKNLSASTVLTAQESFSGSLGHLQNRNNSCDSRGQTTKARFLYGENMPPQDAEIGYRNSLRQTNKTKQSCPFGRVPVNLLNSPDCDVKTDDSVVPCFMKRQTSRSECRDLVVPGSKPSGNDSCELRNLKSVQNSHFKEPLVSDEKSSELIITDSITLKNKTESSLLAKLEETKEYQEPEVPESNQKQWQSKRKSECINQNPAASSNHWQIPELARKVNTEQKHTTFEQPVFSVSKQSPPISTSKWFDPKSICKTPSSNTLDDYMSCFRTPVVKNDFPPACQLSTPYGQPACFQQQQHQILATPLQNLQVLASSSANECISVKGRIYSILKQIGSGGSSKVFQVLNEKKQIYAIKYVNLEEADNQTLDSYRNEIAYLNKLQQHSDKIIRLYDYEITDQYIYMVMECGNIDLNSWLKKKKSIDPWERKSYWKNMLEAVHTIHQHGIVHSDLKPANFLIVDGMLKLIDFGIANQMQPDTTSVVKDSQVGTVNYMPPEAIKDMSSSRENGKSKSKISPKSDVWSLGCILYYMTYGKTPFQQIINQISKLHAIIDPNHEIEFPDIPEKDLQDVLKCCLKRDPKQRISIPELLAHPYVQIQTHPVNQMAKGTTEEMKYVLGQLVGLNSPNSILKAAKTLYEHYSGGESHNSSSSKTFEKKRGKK
Outline: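 ADP-Glo read-out; percent inhibition at each compound concentration was relative to the solvent-only control. The reactions contained 25 ng enzyme, 0.2 μg substrate and 10 μM ATP in 40 mM Tris-HCl pH 7.4 with 20 mM MgCl2, 0.5 mg/mL BSA and 50 μM DTT, and ran 2 h at 25 °C.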

MDA-MB-231 cells = assay: Inhibition of proliferation of triple-negative breast cancer cells, CellTiter-Glo; type: cell-based; conditions: Homo sapiens, 120 h; MDA-MB-231, cultured for 5 days
Outline: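 MDA-MB-231 cells pre-cultured 24 h (5% CO2, 37 °C), then exposed to compound for 5 days at 12 three-fold dilutions, final 10 μM to 0.05 nM. Viability read by CellTiter-Glo luminescence after 10 min at 37 °C; growth inhibition calculated relative to untreated solvent-control cells.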

| SMILES | GI50 (SHP-77) [nM] | IC50 (TTK) [nM] | GI50 (MDA-MB-231 cells) [nM] |
| --- | --- | --- | --- |
| COc1cc(N2CCCCS2(=O)=O)ccc1Nc1nc(NC2CCOCC2)c2c(C(F)(F)F)c[nH]c2n1 [Example 175, 2-(3-methoxy-4-((4-((tetrahydro-2H-pyran-4-yl)amino)-5-(trifluoromethyl)-7H-pyrrolo[2,3-d]pyrimidin-2-yl)amino)phenyl)-1,2-thiazinane 1,1-dioxide] | < 100 | < 50 | < 100 |
| COc1cc(-c2ccnn2C)ccc1Nc1nc(C2=CCCCC2)c2c(C#N)c[nH]c2n1 [Example 129, 4-(cyclohex-1-en-1-yl)-2-((2-methoxy-4-(1-methyl-1H-pyrazol-5-yl)phenyl)amino)-7H-pyrrolo[2,3-d] pyrimidine-5-carbonitrile] | 100 to 1000 | 200 to 1000 | 100 to 1000 |
| COc1cc(Nc2nc(NC3CCCC3)c3c(C#N)c[nH]c3n2)ccc1-c1ccnn1C [Example 120, 4-(cyclopentylamino)-2-((3-methoxy-4-(1-methyl-1H-pyrazol-5-yl)phenyl)amino)-7H-pyrrolo[2,3-d] pyrimidine-5-carbonitrile] | 100 to 1000 | 50 to 200 | 100 to 1000 |
| COc1cc(-c2ccnn2C)c(F)cc1Nc1nc(NC2CCCC2)c2c(C#N)c[nH]c2n1 [Example 103, 4-(cyclopentylamino)-2-((5-fluoro-2-methoxy-4-(1-methyl-1H-pyrazol-5-yl)phenyl)amino)-7H-pyrrolo[2,3-d] pyrimidine-5-carbonitrile] | 100 to 1000 | 200 to 1000 | 100 to 1000 |
| N#Cc1c[nH]c2nc(Nc3ccc(N4CCCS4(=O)=O)cc3)nc(NC3CCCC3)c12 [Example 158, 4-(cyclopentylamino)-2-((4-(1,1-dioxidoisothiazolidin-2-yl)phenyl)amino)-7H-pyrrolo[2,3-d] pyrimidine-5-carbonitrile] | < 100 | < 50 | < 100 |
| Cn1nccc1-c1ccc(Nc2nc(NC3CCOC(C)(C)C3)c3c(C(F)(F)F)c[nH]c3n2)c2c1OCCO2 (stereo not drawn) [Example 172, N^4-(2,2-dimethyltetrahydro-2H-pyran-4-yl)-N^2-(8-(1-methyl-1H-pyrazol-5-yl)-2,3-dihydrobenzo[b][1,4]dioxin-5-yl)-5-(trifluoromethyl)-7H-pyrrolo[2,3-d] pyrimidine-2,4-diamine] | < 100 | < 50 | < 100 |
| COc1cc(Nc2nc(NC3CCCC3)c3c(C#N)c[nH]c3n2)ccc1-c1cnn(C)c1 [Example 136, 4-(cyclopentylamino)-2-((3-methoxy-4-(1-methyl-1H-pyrazol-4-yl)phenyl)amino)-7H-pyrrolo[2,3-d] pyrimidine-5-carbonitrile] | < 100 | 50 to 200 | < 100 |
| COc1cc(N2CCCCS2(=O)=O)ccc1Nc1nc(NC2CCOCC2)c2c(C#N)c[nH]c2n1 [Example 163, 2-((4-(1,1-dioxido-1,2-thiazinan-2-yl)-2-methoxyphenyl)amino)-4-((tetrahydro-2H-pyran-4-yl)amino)-7H-pyrrolo[2,3-d] pyrimidine-5-carbonitrile] | < 100 | < 50 | < 100 |
| Cn1cc(-c2ccc(Nc3nc(NC4CCC(F)(F)C4)c4c(C#N)c[nH]c4n3)c3c2OCCO3)cn1 (stereo not drawn) [Example 159, 4-((3,3-difluorocyclopentyl)amino)-2-((8-(1-methyl-1H-pyrazol-4-yl)-2,3-dihydrobenzo[b][1,4]dioxin-5-yl)amino)-7H-pyrrolo[2,3-d] pyrimidine-5-carbonitrile] | < 100 | < 50 | < 100 |
| Cn1cc(-c2ccc(Nc3nc(NC4C[C@H]5CC[C@@H]4C5)c4c(C#N)c[nH]c4n3)c3c2OCCO3)cn1 (stereo partly drawn) [Example 147, 4-(((1R,4S)-bicyclo[2.2.1]heptan-2-yl)amino)-2-((8-(1-methyl-1H-pyrazol-4-yl)-2,3-dihydrobenzo[b][1,4]dioxin-5-yl)amino)-7H-pyrrolo[2,3-d] pyrimidine-5-carbonitrile] | < 100 | < 50 | < 100 |
| COc1cc(Nc2nc(NC3CCOCC3)c3c(C#N)c[nH]c3n2)ccc1-c1ccnn1C [Example 119, 2-((3-methoxy-4-(1-methyl-1H-pyrazol-5-yl)phenyl)amino)-4-((tetrahydro-2H-pyran-4-yl)amino)-7H-pyrrolo[2,3-d] pyrimidine-5-carbonitrile] | < 100 | < 50 | < 100 |
| COc1cc(-c2cnn(C)c2)ccc1Nc1nc(NC2CCOCC2)c2c(C#N)c[nH]c2n1 [Example 92, 2-((2-methoxy-4-(1-methyl-1H-pyrazol-4-yl)phenyl)amino)-4-((tetrahydro-2H-pyran-4-yl)amino)-7H-pyrrolo[2,3-d] pyrimidine-5-carbonitrile] | < 100 | < 50 | < 100 |
| N#Cc1c[nH]c2nc(Nc3ccc(N4CCCS4(=O)=O)cc3)nc(NC3CCOCC3)c12 [Example 166, 2-((4-(1,1-dioxidoisothiazolidin-2-yl)phenyl)amino)-4-((tetrahydro-2H-pyran-4-yl)amino)-7H-pyrrolo[2,3-d] pyrimidine-5-carbonitrile] | < 100 | < 50 | < 100 |
| Cn1cc(-c2ccc(Nc3nc(NC4CCOC(C)(C)C4)c4c(C#N)c[nH]c4n3)c3c2OCCO3)cn1 (stereo not drawn) [Example 145, 4-((2,2-dimethyltetrahydro-2H-pyran-4-yl)amino)-2-((8-(1-methyl-1H-pyrazol-4-yl)-2,3-dihydrobenzo[b][1,4]dioxin-5-yl)amino)-7H-pyrrolo[2,3-d] pyrimidine-5-carbonitrile] | < 100 | < 50 | < 100 |
| Cn1nccc1-c1ccc(Nc2nc(NC3CCCCCC3)c3c(C#N)c[nH]c3n2)c2c1OCCO2 [Example 59, 4-(cycloheptylamino)-2-((8-(1-methyl-1H-pyrazol-5-yl)-2,3-dihydrobenzo[b][1,4]dioxin-5-yl)amino)-7H-pyrrolo[2,3-d] pyrimidine-5-carbonitrile] | < 100 | 200 to 1000 | < 100 |
| COc1cc(-c2ccnn2C)ccc1Nc1nc(NC2CCCC2)c2c(Cl)c[nH]c2n1 [Example 127, 5-chloro-N^4-cyclopentyl-N^2-(2-methoxy-4-(1-methyl-1H-pyrazol-5-yl)phenyl)-7H-pyrrolo[2,3-d] pyrimidine-2,4-diamine] | < 100 | 50 to 200 | < 100 |
| COc1cc(N2CCCCS2(=O)=O)ccc1Nc1nc(NC2CCCC2)c2c(C(F)(F)F)c[nH]c2n1 [Example 177, 2-(4-((4-(cyclopentylamino)-5-(trifluoromethyl)-7H-pyrrolo[2,3-d]pyrimidin-2-yl)amino)-3-methoxyphenyl)-1,2-thiazinane 1,1-dioxide] | 100 to 1000 | 50 to 200 | 100 to 1000 |
| COC[C@@H](C)Nc1nc(Nc2ccc(-c3ccnn3C)c3c2OCCO3)nc2[nH]cc(C#N)c12 [Example 101] | < 100 | < 50 | < 100 |
| Cn1cc(-c2ccc(Nc3nc(NC4CCCCCC4)c4c(C#N)c[nH]c4n3)c3c2OCCO3)cn1 [Example 150, 4-(cycloheptylamino)-2-((8-(1-methyl-1H-pyrazol-4-yl)-2,3-dihydrobenzo[b][1,4]dioxin-5-yl)amino)-7H-pyrrolo[2,3-d] pyrimidine-5-carbonitrile] | < 100 | 50 to 200 | < 100 |
| COCCNc1nc(Nc2ccc(-c3c(C)noc3C)cc2OC)nc2[nH]cc(C#N)c12 [Example 96] | < 100 | < 50 | < 100 |
| Cn1nccc1-c1ccc(Nc2nc(NC3CCCC(F)(F)C3)c3c(C#N)c[nH]c3n2)c2c1OCCO2 (stereo not drawn) [Example 153] | < 100 | 50 to 200 | < 100 |
| COc1cc(-c2nncn2C)ccc1Nc1nc(NC2CCOCC2)c2c(C#N)c[nH]c2n1 [Example 90, 2-((2-methoxy-4-(4-methy1-4H-1,2,4-triazol-3-yl)phenyl)amino)-4-((tetrahydro-2H-pyran-4-yl)amino)-7H-pyrrolo[2,3-d] pyrimidine-5-carbonitrile] | < 100 | < 50 | < 100 |
